According to ChEMBL document CHEMBL4229357, “1-Aroylindoline-hydroxamic acids as anticancer agents, inhibitors of HSP90 and HDAC” (Eur J Med Chem, 2018):
Activity calls are given as the source filed them. The calls are words filed in the database; no cut-off is given here.

Legend:
[1] = target: T1, Heat shock protein HSP90 (Homo sapiens) (UniProt P07900+P08238); experiment: Inhibition of HSP90 in human HL60 cells assessed as induction of HSP70 expression at 1 uM by Western blot analysis; assay type: cell-based; conditions: TDE = time-dependent effect
[2] = target: T1, Heat shock protein HSP90 (Homo sapiens); experiment: Inhibition of HSP90 in human HL60 cells assessed as downregulation of phosphorylated STAT3 expression after 24 hrs by Western blot analysis; assay type: cell-based
[3] = target: T1, Heat shock protein HSP90 (Homo sapiens); experiment: Inhibition of HSP90 in human HL60 cells assessed as downregulation of phosphorylated STAT3 expression at 1 uM by Western blot analysis; assay type: cell-based; conditions: TDE = time-dependent effect
[4] = target: T1, Heat shock protein HSP90 (Homo sapiens); experiment: Inhibition of HSP90 in human HL60 cells assessed as induction of HSP70 expression after 24 hrs by Western blot analysis; assay type: cell-based
[5] = target: T1, Heat shock protein HSP90 (Homo sapiens); experiment: Inhibition of HSP90 in human HL60 cells assessed as downregulation of phosphorylated Akt expression after 24 hrs by Western blot analysis; assay type: cell-based
[6] = target: T1, Heat shock protein HSP90 (Homo sapiens); experiment: Inhibition of HSP90 in human HL60 cells assessed as downregulation of phosphorylated Akt expression at 1 uM by Western blot analysis; assay type: cell-based; conditions: TDE = time-dependent effect
[7] = target: T2, Histone deacetylase (Homo sapiens) (UniProt Q13547+O15379+Q9UBN7+Q92769+Q9UQL6+Q8WUI4+Q9BY41+Q96DB2+P56524+Q9UKV0+Q969S8); experiment: Inhibition of HDAC in human HL60 cells assessed as upregulation of acetyl-alpha-tubulin levels at 1 uM after 24 hrs by Western blot analysis; assay type: cell-based
[8] = target: T2, Histone deacetylase (Homo sapiens); experiment: Inhibition of HDAC in human HL60 cells assessed as upregulation of acetylated histone H3 levels at 1 uM after 24 hrs by Western blot analysis; assay type: cell-based
A549 = experiment: Antiproliferative activity against human A549 cells after 48 hrs by sulforhodamine B assay; assay type: functional
NCI-H1975 = experiment: Antiproliferative activity against human NCI-H1975 cells after 48 hrs by sulforhodamine B assay; assay type: functional; conditions: NCI-H1975, 48 h
HL-60 = experiment: Antiproliferative activity against human HL60 cells after 48 hrs by sulforhodamine B assay; assay type: functional
HCT-116 = experiment: Antiproliferative activity against human HCT116 cells after 48 hrs by sulforhodamine B assay; assay type: functional; conditions: HCT-116, 48 h
Histone deacetylase = assay type: protein assay, Homo sapiens
[9] = target: Heat shock protein HSP 90-alpha (Homo sapiens, UniProt P07900); experiment: Inhibition of FITC-geldanamycin binding to HSP90alpha (unknown origin) after 3 hrs by fluorescence polarization assay

inhibition [1]	inhibition [2]	inhibition [3]	inhibition [4]	inhibition [5]	inhibition [6]	SMILES	inhibition [7]	inhibition [8]	GI50 (A549; Homo sapiens, A549, 48 h)	GI50 (NCI-H1975)	GI50 (HL-60; Homo sapiens, HL-60, 48 h)	GI50 (HCT-116)	IC50 (Histone deacetylase)	GI50 (A549)	IC50 [9]	GI50 (HL-60)
Tde	Dose-dependent effect	Tde	Dose-dependent effect	Dose-dependent effect	Tde	CC(C)c1cc(C(=O)N2CCc3cc(NC(=O)CCCCCCC(=O)NO)ccc32)c(O)cc1O	–	–	–	–	–	–	–	–	–	–
–	–	–	–	–	–	COc1c(C)cnc(Cn2cnc3c(Cl)nc(N)nc32)c1C [BIIB021]	Active	Active	330 nM	380 nM	590 nM	150 nM	> 1000 nM	–	–	–
–	–	–	–	–	–	O=C(CCCCCCC(=O)Nc1ccccc1)NO [VORINOSTAT]	–	–	–	1410 nM	–	150 nM	–	1020 nM	> 1000 nM	1740 nM
